The experiment relates to pERK1/2(THR202/TYR204) level in AsPC-1 cells. As to the kind of experiment: pERK assay (HTRF) in AsPC-1 cell line. As to conditions: 2 h compound treatment. It counts as cell-based. How it is done:
AsPC-1 cell line was used in this study. Cells were maintained in RPMI-1640 supplemented with 10% fetal bovine serum (Thermo Fisher), 50 units/mL penicillin and streptomycin (Thermo Fisher) and kept at 37° C. in a humidified atmosphere of 5% CO2 in air. Cells were reinstated from frozen stocks that were laid down within 30 passages from the original cells purchased. 30000 cells per well were seeded into a 96-well plate and incubated overnight. Cells were treated with a 10-point dilution series. The final compound concentration is from 0 to 10 μM. After 2 h compound treatment, cells were lysed, and the pERK1/2(THR202/TYR204) level in the cell lysates was detected by HTRF kit (Cisbio). In brief, a total of 16 μL of cell lysate from each well of a 96-well plate was transferred to a 384-well white assay plate. Lysate from each well was incubated with 2 μL of Eu3+-cryptate (donor) labeled anti-phospho-ERK1/2 and 2 μL of D2 (acceptor) labeled anti-phospho-ERK1/2 antibodies (Cisbio) overnight in dark at room temperature. When donor and acceptor are in close proximity, excitation of the donor with laser triggers a Fluorescence Resonance Energy Transfer (FRET) towards the acceptor, which in turn fluoresces at 655 nm wavelength. FRET signals were measured using a PHERAstar FSX reader (BMG Labtech). IC50 determination was performed by fitting the curve of percent inhibition versus the log of the inhibitor concentration using Dotmatics.
In general terms: TR-FRET usually uses a lanthanide donor and a delayed reading to cut background.

The values below come from US20250221996A1, “HETEROCYCLIC COMPOUNDS, COMPOSITIONS THEREOF, AND METHODS OF TREATMENT THEREWITH” (BeiGene, Ltd., priority 2022, published 2025).

Some results are limits rather than exact numbers.

`N#Cc1c(N)sc2c(F)ccc(-c3c(C(F)(F)F)cc4c(N5CC6CCC(C5)N6)nc(OCC5(F)COC5)nc4c3F)c12` [Example 44, 4-(4-(3,8-diazabicyclo[3.2.1]octan-3-yl)-8-fluoro-2-((3-fluorooxetan-3-yl)methoxy)-6-(trifluoromethyl)quinazolin-7-yl)-2-amino-7-fluorobenzo [b]thiophene-3-carbonitrile] returned a half-inhibitory concentration (IC50) (Homo sapiens, ASPC1, 2 h) of 211 nM.

In the case of `COC1(COc2nc(N3CC4CCC(C3)N4)c3cc(C(F)(F)F)c(-c4ccc(F)c5sc(N)c(C#N)c45)c(F)c3n2)COC1` [Example 28, 4-(4-(3,8-diazabicyclo[3.2.1]octan-3-yl)-8-fluoro-2-((3-methoxyoxetan-3-yl)methoxy)-6-(trifluoromethyl)quinazolin-7-yl)-2-amino-7-fluorobenzo[b]thiophene-3-carbonitrile], under “Homo sapiens, ASPC1, 2 h”, half-maximal inhibition (IC50) required 78 nM. Against the preceding molecule, the IC50 is about 2.7-fold lower.

`COCC12CC(COc3nc(N4CC5CCC(C4)N5)c4cc(C(F)(F)F)c(-c5ccc(F)c6sc(N)c(C#N)c56)c(F)c4n3)(C1)C(C)(C)O2` [Example 56, 4-(4-(3,8-diazabicyclo[3.2.1]octan-3-yl)-8-fluoro-2-((1-(methoxymethyl)-3,3-dimethyl-2-oxabicyclo[2.1.1]hexan-4-yl)methoxy)-6-(trifluoromethyl)quinazolin-7-yl)-2-amino-7-fluorobenzo[b]thiophene-3-carbonitrile] had an IC50 (Homo sapiens, ASPC1, 2 h) of 109 nM.

The molecule `N#Cc1c(N)sc2c(F)ccc(-c3c(C(F)(F)F)cc4c(N5CC6CCC(C5)N6)nc(OCC5(CO)COC5)nc4c3F)c12` [Example 57, 4-(4-(3,8-diazabicyclo[3.2.1]octan-3-yl)-8-fluoro-2-((3-(hydroxymethyl)oxetan-3-yl)methoxy)-6-(trifluoromethyl)quinazolin-7-yl)-2-amino-7-fluorobenzo[b]thiophene-3-carbonitrile] displayed a half-maximal inhibitory concentration (IC50) (Homo sapiens, ASPC1, 2 h) of 294 nM.

For the molecule `N#Cc1c(N)sc2c(F)ccc(-c3c(C(F)(F)F)cc4c(N5CC6CCC(C5)N6)nc(OCC5(C(F)F)CCOC5)nc4c3F)c12` (single isomer, unassigned) [Example 14-Isomer 4, 4-(4-(3,8-diazabicyclo[3.2.1]octan-3-yl)-2-((3-(difluoromethyl)tetrahydrofuran-3-yl)methoxy)-8-fluoro-6-(trifluoromethyl)quinazolin-7-yl)-2-amino-7-fluorobenzo[b]thiophene-3-carbonitrile], the half-inhibitory concentration (IC50) was found to be 138 nM. This lies in the sub-micromolar range.

For the molecule `CC(=O)N1CC2(COc3nc(N4CC5CCC(C4)N5)c4cc(C(F)(F)F)c(-c5ccc(F)c6sc(N)c(C#N)c56)c(F)c4n3)CC1C2` [Example 40, 4-(2-((2-acetyl-2-azabicyclo[2.1.1]hexan-4-yl)methoxy)-4-(3,8-diazabicyclo[3.2.1]octan-3-yl)-8-fluoro-6-(trifluoromethyl)quinazolin-7-yl)-2-amino-7-fluorobenzo[b]thiophene-3-carbonitrile], under “Homo sapiens, ASPC1, 2 h”, the half-maximal inhibitory concentration (IC50) stood at 236 nM.

On to `COC1(COc2nc(N3CC4CCC(C3)N4)c3cc(C(F)(F)F)c(-c4ccc(F)c5sc(N)c(C#N)c45)c(F)c3n2)CCOCC1` (single isomer, unassigned) [Example 4-Isomer 2, 4-(4-(3,8-diazabicyclo[3.2.1]octan-3-yl)-8-fluoro-2-((4-methoxytetrahydro-2H-pyran-4-yl)methoxy)-6-(trifluoromethyl)quinazolin-7-yl)-2-amino-7-fluorobenzo[b]thiophene-3 carbonitrile], for which the concentration for half-maximal inhibition (IC50) (Homo sapiens, ASPC1, 2 h) was determined as 100 nM. This IC50 lies about 2.4-fold lower than the previous one.

Molecule `N#Cc1c(N)sc2c(F)ccc(-c3c(C(F)(F)F)cc4c(N5CC6CCC(C5)N6)nc(OCC5(C#N)CCOC5)nc4c3F)c12` (single isomer, unassigned) [Example 10-Isomer 3, 3-(((7-(2-amino-3-cyano-7-fluorobenzo[b]thiophen-4-yl)-4-(3,8-diazabicyclo[3.2.1]octan-3-yl)-8-fluoro-6-(trifluoromethyl)quinazolin-2-yl)oxy)methyl)tetrahydrofuran-3-carbonitrile] yielded an IC50 of 42 nM. This lies in the double-digit nanomolar range.

`N#Cc1c(N)sc2c(F)ccc(-c3c(C(F)(F)F)cc4c(N5CC6CCC(C5)N6)nc(OCC5(C#N)COC5)nc4c3F)c12` [Example 49, 3-(((7-(2-amino-3-cyano-7-fluorobenzo[b]thiophen-4-yl)-4-(3,8-diazabicyclo[3.2.1]octan-3-yl)-8-fluoro-6-(trifluoromethyl)quinazolin-2-yl)oxy)methyl)oxetane-3-carbonitrile] showed a half-inhibitory concentration (IC50) (Homo sapiens, ASPC1, 2 h) of 103 nM.

For the molecule `N#Cc1c(N)sc2c(F)ccc(-c3c(Cl)cc4c(N5C6CCC5CNC6)nc(OCC56COC(C5)C6)nc4c3F)c12` (single isomer, unassigned) [Example 5-Isomer 2, 4-(2-((2-oxabicyclo[2.1.1]hexan-4-yl)methoxy)-4-(3,8-diazabicyclo [3.2.1]octan-8-yl)-6-chloro-8-fluoroquinazolin-7-yl)-2-amino-7-fluorobenzo[b]thio phene-3-carbonitrile], for the setting “Homo sapiens, ASPC1, 2 h”, it took 44 nM to reach half-maximal inhibition (IC50). This IC50 lies about 2.3-fold lower than the previous one.

In turn, `COC(=O)N1CC(COc2nc(N3CC4CCC(C3)N4)c3cc(C(F)(F)F)c(-c4ccc(F)c5sc(N)c(C#N)c45)c(F)c3n2)(OC)C1` [Example 20, methyl 3-(((7-(2-amino-3-cyano-7-fluorobenzo[b]thiophen-4-yl)-4-(3,8-diazabicyclo[3.2.1]octan-3-yl)-8-fluoro-6-(trifluoromethyl)quinazolin-2-yl)oxy)methyl)-3-methoxyazetidine-1-carboxylate] came in with an IC50 (Homo sapiens, ASPC1, 2 h) of 188 nM.

With `COCCNC1C[C@H]2CC[C@@H]1N2c1nc(OCC23COC(C2)C3)nc2c(F)c(-c3ccc(F)c4sc(N)c(C#N)c34)c(C(F)(F)F)cc12` (stereo partly drawn) [Example 41, 4-(2-((2-oxabicyclo[2.1.1]hexan-4-yl)methoxy)-8-fluoro-4-((1S,4R)-2-((2-methoxyethyl)amino)-7-azabicyclo[2.2.1]heptan-7-yl)-6-(trifluoromethyl)quinazolin-7-yl)-2-amino-7-fluorobenzo[b]thiophene-3-carbonitrile], the IC50 (Homo sapiens, ASPC1, 2 h) was found to be 860 nM.

In turn, `N#Cc1c(N)sc2c(F)ccc(-c3c(C(F)(F)F)cc4c(N5CC6CCC(C5)N6)nc(OCC56COC(CO)(C5)C6)nc4c3F)c12` [Example 21, 4-(4-(3,8-diazabicyclo[3.2.1]octan-3-yl)-8-fluoro-2-((1-(hydroxymethyl)-2-oxabicyclo[2.1.1]hexan-4-yl)methoxy)-6-(trifluoromethyl)quinazolin-7-yl)-2-amino-7-fluorobenzo[b]thiophene-3-carbonitrile] showed an IC50 (Homo sapiens, ASPC1, 2 h) of 760 nM.

For the setting “Homo sapiens, ASPC1, 2 h”, `CC12CC(COc3nc(N4CC5CCC(C4)N5)c4cc(C(F)(F)F)c(-c5cc(O)cc6ccccc56)c(F)c4n3)(CO1)C2` [Example 29, 4-(4-(3,8-diazabicyclo[3.2.1]octan-3-yl)-8-fluoro-2-((1-methyl-2-oxabicyclo[2.1.1]hexan-4-yl)methoxy)-6-(trifluoromethyl)quinazolin-7-yl)naphthalen-2-ol] yielded a half-inhibitory concentration (IC50) of over 10000 nM.

Under “Homo sapiens, ASPC1, 2 h”, `N#Cc1c(N)sc2c(F)ccc(-c3c(C(F)(F)F)cc4c(N5CC6CCC(C5)N6)nc(OCC56COC(COC7CC7)(C5)C6)nc4c3F)c12` [Example 47, 4-(4-(3,8-diazabicyclo[3.2.1]octan-3-yl)-2-((1-(cyclopropoxymethyl)-2-oxabicyclo[2.1.1]hexan-4-yl)methoxy)-8-fluoro-6-(trifluoromethyl)quinazolin-7-yl)-2-amino-7-fluorobenzo[b]thiophene-3-carbonitrile] registered a half-inhibitory concentration (IC50) of 154 nM.

Take `N#Cc1c(N)sc2c(F)ccc(-c3c(C(F)(F)F)cc4c(N5C6CCC5CNC6)nc(OCC56COC(C5)C6)nc4c3F)c12` (single isomer, unassigned) [Example 9-Isomer 2, 4-(2-((2-oxabicyclo[2.1.1]hexan-4-yl)methoxy)-4-(3,8-diazabicyclo[3.2.1]octan-8-yl)-8-fluoro-6-(trifluoromethyl)quinazolin-7-yl)-2-amino-7-fluorobenzo[b]thiophene-3-carbonitrile]: half-maximal inhibition (IC50) was put at 103 nM.

The molecule `N#Cc1c(N)sc2c(F)ccc(-c3c(C(F)(F)F)cc4c(N5CC6CCC(C5)N6)nc(OCC5(F)CCOC5)nc4c3F)c12` (stereo not shown) [Example 25, 4-(4-(3,8-diazabicyclo[3.2.1]octan-3-yl)-8-fluoro-2-((3-fluorotetra hydrofuran-3-yl)methoxy)-6-(trifluoromethyl)quinazolin-7-yl)-2-amino-7-fluoro benzo[b]thiophene-3-carbonitrile] came in with an IC50 (Homo sapiens, ASPC1, 2 h) of 201 nM.

Take `CC12CC(COc3nc(N4CC5CCC(C4)N5)c4ccc(-c5ccc(F)c6sc(N)c(C#N)c56)c(F)c4n3)(CO1)C2` [Example 15, 4-(4-(3,8-diazabicyclo[3.2.1]octan-3-yl)-8-fluoro-2-((1-methyl-2-oxabicyclo[2.1.1]hexan-4-yl)methoxy)quinazolin-7-yl)-2-amino-7-fluorobenzo[b] thiophene-3-carbonitrile]: the 50% inhibitory concentration (IC50) (Homo sapiens, ASPC1, 2 h) is 7140 nM.

For `N#Cc1c(N)sc2c(F)ccc(-c3c(C(F)(F)F)cc4c(N5CC6CCC(C5)N6)nc(OCC5(CF)COC5)nc4c3F)c12` [Example 53, 4-(4-(3,8-diazabicyclo[3.2.1]octan-3-yl)-8-fluoro-2-((3-(fluoromethyl)oxetan-3-yl)methoxy)-6-(trifluoromethyl)quinazolin-7-yl)-2-amino-7-fluoro benzo[b]thiophene-3-carbonitrile], half-maximal inhibition (Homo sapiens, ASPC1, 2 h) (IC50) required 33 nM.

As a reminder, the IC50 is the concentration that inhibits the measured activity by half.
